Source: US8003812B2, “C10 cyclopentyl ester substituted taxanes” (priority 2004, dated 2011)
Values joined by “and” are separate entries in the source; they are usually repeats but may differ in a detail not shown here. Equal entries are not always repeated. Where two headings read alike, the source gives them in different places.

What was measured:
[1] = system: HCT 116 human colon carcinoma; assay: In vitro cytotoxicity, cell colony formation assay, HCT116; assay type: cell-based; details: 72 h drug incubation
Experimental: The cells were incubated in a CO2 incubator at 37° C. for 5 h for attachment to the bottom of Petri dishes. The compound of the present invention was made up fresh in medium at ten times the final concentration, and then 0.3 mL of this stock solution was added to the 2.7 mL of medium in the dish. The cells were then incubated with drugs for 72 h at 37° C. At the end of incubation the drug-containing media were decanted, the dishes were rinsed with 4 mL of Hank's Balance Salt Solution (HBSS), 5 mL of fresh medium was added, and the dishes were returned to the incubator for colony formation. The cell colonies were counted using a colony counter after incubation for 7 days. Cell survival was calculated and the values of IC50 (the drug concentration producing 50% inhibition of colony formation) were determined for each tested compound.

[2] = system: DLD-1 (resistant human colon carcinoma); assay: In vitro cytotoxicity, MTT assay, DLD-1; assay type: cell-based
Sprague-Dawley rats = assay: In vivo toxicity assessment in rats, intravenous
Experimental: Toxicity was assessed in 250-300g Sprague-Dawley rats and three rats were used per dose group. Three dose groups of the test compound, (i.e., 3 mg/kg, 9 mg/kg and 12 mg/kg for intravenous administration; 15 mg/kg, 30 mg/kg and 40 mg/kg) and 1 control group constituted a study. Animals were observed and clinical chemistry data collected at days 4 and 10. Rats were euthanized on day 11 and the nerves were excised and fixed upon euthanization for further examination.
Each rat is scored as described below and a final toxicity score that incorporates all parameters is assigned. A dead rat is assigned a score of zero. Most of the parameters contribute a positive value towards a total possible score of 130. For body weight, white blood cell, and platelet decreases, recovery is considered. […] The total score is divided by 13 to put it on a scale from 0 to 10.

[3] = system: human pancreatic tumor xenograft Panc-1; details: for No. of CR / No. of LTTES / No. of PR: 6 mice; for Median TTE: endpoint 1200 mg; for Efficacy Score = 10*(TWd1−TWdn)/TWd1: best score 10; for No. of NTR / No. of TR: mouse, in vivo, po;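 on Tumor Burden Median(n), Day 59 (MTV): Panc-1 fragments grown subcutaneously in athymic nude mice, one oral dose given on Day 1, six mice per group, tumor endpoint 1200 mm^3, control is Group 1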;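 on survival: Panc-1 fragments grown subcutaneously in athymic nude mice, one oral dose given on Day 1, six mice per group, tumor endpoint 1200 mm^3, control is Group 1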
Experimental: The tumor used for this study was maintained in athymic nude mice. A tumor fragment (1 mm^3) was implanted s.c. into the right flank of each test mouse. Tumors were monitored twice weekly and then daily as their volume approached 200-400 mm^3 with a mean of 250-300 mm^3. On Day 1 of the study, the animals were sorted into treatment groups with tumor sizes of 171.5-320.0 mm^3 and group mean tumor sizes of 212.6-216.0 mm^3. Tumor size, in mm^3, was calculated from the following formula:
[formula] where w=width and l=length in mm of the tumor. Tumor weight was estimated with the assumption that 1 mg is equivalent to 1 mm^3 of tumor volume. […] All treatments were administered orally, once on Day 1 (qd×1). […] In all groups, the dosing volume of 0.6 mL/20 g mouse was scaled to the body weight of each animal. Each animal was euthanized when its neoplasm reached the predetermined endpoint size (1200 mm^3). The time to endpoint (TTE) for each mouse was calculated by the following equation:
(§1) [formula] where TTE is expressed in days, endpoint volume is in mm^3, b is the intercept, and m is the slope of the line obtained by linear regression of a log-transformed tumor growth data set. The data set is comprised of the first observation that exceeded the study endpoint volume and the three consecutive observations that immediately preceded the attainment of the endpoint volume. […] Animals classified as TR (treatment-related) deaths or NTRM (non-treatment-related metastasis) deaths are assigned a TTE value equal to the day of death. Animals classified as NTR (non-treatment-related) deaths are excluded from TTE calculations. Treatment efficacy was determined from tumor growth delay (TGD), which is defined as the increase in the median TTE for a treatment group compared to the control group: TGD=T−C, expressed in days, or as a percentage of the median TTE of the control group:
[formula] where: • T=median TTE for a treatment group and • C=median TTE for control Group 1.
(§2) Treatment may cause partial regression (PR) or complete regression (CR) of the tumor in an animal. In a PR response, the tumor volume is 50% or less of its Day 1 volume for three consecutive measurements during the course of the study, and equal to or greater than 13.5 mm^3 for one or more of these three measurements. In a CR response, the tumor volume is less than 13.5 mm^3 for three consecutive measurements during the course of the study. An animal with a CR response at the termination of a study is additionally classified as a long-term tumor-free survivor (LTTFS).
With respect to toxicity, the animals were weighed daily on Days 1-5, then twice weekly until the completion of the study. The mice were examined frequently for overt signs of any adverse, drug-related side effects. Acceptable toxicity for the maximum tolerated dose (MTD) of a cancer drug in mice is defined by the NCl as a group mean body-weight (BW) loss of less than 20% during the test, and not more than one toxic death among ten treated animals. The log rank test was employed to analyze the significance of the difference between the TTE values of a drug-treated group and the vehicle-treated control group. The log rank test analyzes the data for all animals except the NTR deaths. The two-tailed statistical analyses were conducted at P=0.05. The group median tumor growth curves show the median tumor volume (MTV) as a function of time. When an animal exited the study due to tumor size or TR death, the final tumor volume recorded for the animal was included with the data used to calculate the median volume at subsequent time points.

[4] = system: human pancreatic tumor xenograft Panc-1; details: for Efficacy Score = 10*(TWd1−TWdn)/TWd1: single dose IV;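 on Tumor Burden Median(n), Day 59 (MTV): Panc-1 fragments grown subcutaneously in athymic nude mice, one oral dose given on Day 1, six mice per group, tumor endpoint 1200 mm^3, control is Group 1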;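 on survival: Panc-1 fragments grown subcutaneously in athymic nude mice, one oral dose given on Day 1, six mice per group, tumor endpoint 1200 mm^3, control is Group 1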
Excerpt: as §1, §2
With respect to toxicity, the animals were weighed daily on Days 1-5, then twice weekly until the completion of the study. The mice were examined frequently for overt signs of any adverse, drug-related side effects. […] The log rank test was employed to analyze the significance of the difference between the TTE values of a drug-treated group and the vehicle-treated control group. The log rank test analyzes the data for all animals except the NTR deaths. The two-tailed statistical analyses were conducted at P=0.05. The group median tumor growth curves show the median tumor volume (MTV) as a function of time. When an animal exited the study due to tumor size or TR death, the final tumor volume recorded for the animal was included with the data used to calculate the median volume at subsequent time points. If more than one death occurred in a treatment group, the tumor growth curve for that group was truncated at the time of the second death.
Human Panc-1 pancreatic carcinomas were maintained in athymic nude mice. A tumor fragment (1 mm^3) was implanted s.c. into the right flank of each test mouse. Tumors were monitored twice weekly and then daily as their size approached 200-400 mm^3 with a mean of 250-300 mm^3. On Day 1 of the study, the animals were sorted into groups of six mice, with tumor sizes of 171.5-486.0 mm^3 and group mean tumor sizes of 269.7-275.0 mm^3. Mice were sorted into groups containing six mice each, and treated according to the protocol in Tables 2A and 2B. All treatments were administered intravenously. Control Group 1 mice received the ethanol 5% and Liposyn II 95% vehicle, once on Day 1 (qd×1). […] Dosing volumes were 0.5 ml/20 g body weight for qd×1 dosing regimens and 0.3 mL/20 g body weight for the qod×5 or q4d×4 dosing schedules. Dosing volumes were scaled to the body weight of each animal. The vehicle was given to Group 1 mice in a single dose on Day 1 (qd×1).

[5] = system: HT29 (human colon carcinoma) xenograft; details: for # Death NTR / # Death TR / MDS to 1.0 g ± SEM (n) / Efficacy Score = 10*(TWd1−TWdn)/TWd1: HT29; for # Death NTR / # Death TR: 6 mice; for Efficacy Score = 10*(TWd1−TWdn)/TWd1: best score 10; for Max. % BW Loss; Day: mouse, in vivo, po
Excerpt: Score=10*(TWd1−TWdn)/TWd1, where
TWd1=tumor weight on day 1
(§3) TWDn=lowest tumor weight on day 10 or later
(§4) Thus the best score for complete regression would be 10.

[6] = system: HT29 (human colon carcinoma) xenograft; details: for Efficacy Score = 10*(TWd1−TWdn)/TWd1: single dose IV
Excerpt: Score=10*(TWd1−TWdn)/TWd1, where
TWd1=tumor weight on day 1
as §3, §4

[7] = IV, second IV 9091 line (two IV dosage regimens)
[8] = Panc-1, Group 2: 120 mg/kg po qd × 1
[9] = Panc-1, Group 2: 120 mg/kg po qd × 1, 120 mg/kg
[10] = Panc-1, Group 3: 60 mg/kg po qd × 1
[11] = Panc-1, Group 3: 60 mg/kg po qd × 1, 60 mg/kg
[12] = Group 2: 20 mg/kg IV qod × 5, 6 mice
[13] = Group 3: 30 mg/kg IV q4d × 4, 6 mice
[14] = Group 4: 120 mg/kg IV qd × 1, 6 mice
[15] = Group 5: 60 mg/kg IV qd × 5 (Table 2A), 6 mice
[16] = Group 5: 120 mg/kg IV QD × 1 in 5% E-95% I-20, 6 mice
[17] = Group 6: 60 mg/kg IV QD × 1 in 5% E-95% I-20, 6 mice
[18] = Group 7: 120 mg/kg IV QD × 1 in 5% ET in Saline, 6 mice
[19] = Group 8: 60 mg/kg IV QD × 1 in 5% ET in Saline, 6 mice
[20] = Group 9: 120 mg/kg IV QD × 1 in 5% EC in Saline, 6 mice
[21] = Group 10: 60 mg/kg IV QD × 1 in 5% EC in Saline, 6 mice
[22] = Group 14: 30 mg/kg IV Q4d × 4 in 5% E-95% I-20, 6 mice
[23] = Group 15: 20 mg/kg IV Q4d × 4 in 5% E-95% I-20, 6 mice
[24] = Group 16: 30 mg/kg IV Q4d × 4 in 5% ET in Saline, 6 mice
[25] = Group 17: 20 mg/kg IV Q4d × 4 in 5% ET in Saline, 6 mice
[26] = Group 18: 30 mg/kg IV Q4d × 4 in 5% EC in Saline, 6 mice
[27] = Group 19: 20 mg/kg IV Q4D × 4 in 5% EC in Saline, 6 mice

CC(=O)OC12COC1CC(O)C1(C)C(=O)C(OC(=O)C3CCCC3)C3=C(C)C(OC(=O)C(O)C(NC(=O)OC(C)C)c4cccs4)CC(O)(C(OC(=O)c4ccccc4)C21)C3(C)C (stereo not shown) [Compound 9091]
IC50 [1]: 0.6 nM and 0.63 nM | IC50 [2]: 1.5 nM | Tox Score, Dose 3 mg (Sprague-Dawley rats; IV, scale 0 to 10): 9 | Tox Score, Dose 3 mg (Sprague-Dawley rats; [7]): 9.5 | Tox Score, Dose 9 mg (Sprague-Dawley rats; IV, scale 0 to 10): 7.1 | Tox Score, Dose 9 mg (Sprague-Dawley rats; [7]): 8.1 | Tox Score, Dose 12 mg (Sprague-Dawley rats; IV, scale 0 to 10): 7.8 | Tox Score, Dose 12 mg (Sprague-Dawley rats; [7]): 6.8 | Tox Score, Weighted Avg (Sprague-Dawley rats; IV, Wt Avg = (Σ(dose × grp score))/24): 7.7 | Tox Score, Average (Sprague-Dawley rats; IV, average of 3 dose groups): 7.9 | Tox Score, Average (Sprague-Dawley rats; [7]): 8.1 | Tox Score, Weighted Avg (Sprague-Dawley rats; [7]): 7.6 | Rat tox score IV (second value in cell) (Sprague-Dawley rats; IV, second of two values printed for 9091 (two IV regimens)): 8, 8 | Rat tox score IV (Sprague-Dawley rats; IV, summary score, scale 0 to 10): 8, 8 | toxicity profile in rats compared with congeners (Sprague-Dawley rats; administered intravenously): best toxicity profile | T − C [3, 8]: 40.1 days | % TGD [3, 9]: 212% | No. of CR [3, 8]: 3 | No. of LTTES [3, 8]: 3 | No. of PR [3, 8]: 3 | Tumor Burden Median(n), Day 59 (MTV) [3, 9]: 56 mm^3 and 56 (6) mm^3 | Median TTE [3, 8]: 59.0 days | T − C [3, 10]: 40.1 days | % TGD [3, 11]: 212% | No. of CR [3, 10]: 1 | No. of LTTES [3, 10]: 1 | No. of PR [3, 10]: 5 | Tumor Burden Median(n), Day 59 (MTV) [3, 11]: 148 mm^3 and 148 (6) mm^3 | Median TTE [3, 10]: 59.0 days | survival ([3]; Panc-1, at both the 120 and 60 mg/kg dose, po qd × 1): 100% | regression responses ([3]; Panc-1, at both the 120 and 60 mg/kg dose, po qd × 1, 6 mice per group): six | Efficacy Score = 10*(TWd1−TWdn)/TWd1 ([3]; Panc-1, single dose oral 60 mg/kg): 8.3 | Efficacy Score = 10*(TWd1−TWdn)/TWd1 ([3]; Panc-1, single dose oral 120 mg/kg): 9.1 | No. of NTR ([3]; 60 mg/kg): 0 | No. of TR ([3]; 60 mg/kg): 0 | No. of NTR ([3]; 120 mg/kg): 0 | No. of TR ([3]; 120 mg/kg): 0 | antitumor effectiveness among IV regimens ([4]; 30 mg/kg q4d×4 IV regimen): most effective | No. of CR [4, 12]: 0 | No. of LTTES [4, 12]: 0 | No. of NTR [4, 12]: 0 | No. of PR [4, 12]: 1 | No. of TR [4, 12]: 5 | Max % BW Loss; Day ([4]; Group 2: 20 mg/kg IV qod × 5, Day 10): −15.7%; | Tumor Burden Median (n), Day 56 ([4]; Group 2: 20 mg/kg IV qod × 5, n=1): 108 (1) mm^3 | Median TTE ([4]; Group 2: 20 mg/kg IV qod × 5, not evaluable for efficacy (five TR deaths)): 10.0 days | T − C ([4]; Group 3: 30 mg/kg IV q4d × 4): 40.2 days | % TGD ([4]; Group 3: 30 mg/kg IV q4d × 4, 30 mg/kg): 254% | No. of CR [4, 13]: 1 | No. of LTTES [4, 13]: 1 | No. of NTR [4, 13]: 0 | No. of PR [4, 13]: 5 | No. of TR [4, 13]: 0 | Tumor Burden Median (n), Day 56 (MTV) ([4]; Group 3: 30 mg/kg IV q4d × 4, Day 56): 40 mm^3 | Tumor Burden Median (n), Day 56 (MTV) ([4]; Group 3: 30 mg/kg IV q4d × 4, Day 56, 30 mg/kg): 40.25 (6) mm^3 | Median TTE ([4]; Group 3: 30 mg/kg IV q4d × 4, endpoint 1200 mg): 56.0 days | T − C ([4]; Group 4: 120 mg/kg IV qd × 1): 40.2 days | % TGD ([4]; Group 4: 120 mg/kg IV qd × 1, 120 mg/kg): 254% | No. of CR [4, 14]: 0 | No. of LTTES [4, 14]: 0 | No. of NTR [4, 14]: 2 | No. of PR [4, 14]: 6 | No. of TR [4, 14]: 0 | Tumor Burden Median (n), Day 56 (MTV) ([4]; Group 4: 120 mg/kg IV qd × 1, Day 56, 120 mg/kg): 58 mm^3 and 57.5 (6) mm^3 | Median TTE ([4]; Group 4: 120 mg/kg IV qd × 1, endpoint 1200 mg): 56.0 days | T − C ([4]; Group 5: 60 mg/kg IV qd × 5 (Table 2A)): 40.2 days | % TGD ([4]; Group 5: 60 mg/kg IV qd × 5 (Table 2A), 60 mg/kg): 254% | No. of CR [4, 15]: 0 | No. of LTTES [4, 15]: 0 | No. of NTR [4, 15]: 0 | No. of PR [4, 15]: 6 | No. of TR [4, 15]: 0 | Tumor Burden Median (n), Day 56 (MTV) ([4]; Group 5: 60 mg/kg IV qd × 5 (Table 2A), Day 56, 60 mg/kg): 126 mm^3 and 126 (6) mm^3 | Median TTE ([4]; Group 5: 60 mg/kg IV qd × 5 (Table 2A), endpoint 1200 mg): 56.0 days | end-of-study survivors ([4]; each of 30 mg/kg q4d×4, 120 mg/kg and 60 mg/kg single dose IV, 6 mice per group): six | Efficacy Score = 10*(TWd1−TWdn)/TWd1 ([4]; Dose 60, best score 10): 7.7 | Efficacy Score = 10*(TWd1−TWdn)/TWd1 ([4]; Dose 120, best score 10): 8.6 | # Death NTR ([5]; Group 18: 15 mg/kg po q4d × 4): 0 | # Death TR ([5]; Group 18: 15 mg/kg po q4d × 4): 0 | MDS to 1.0 g ± SEM (n) ([5]; Group 18: 15 mg/kg po q4d × 4, n=6): 24.4 ± 1.4 (6) | # Death NTR ([5]; Group 19: 30 mg/kg po q4d × 4): 0 | # Death TR ([5]; Group 19: 30 mg/kg po q4d × 4): 0 | MDS to 1.0 g ± SEM (n) ([5]; Group 19: 30 mg/kg po q4d × 4, n=1): 25.6 ± (1) | # Death NTR ([5]; Group 20: 45 mg/kg po q4d × 4): 0 | # Death TR ([5]; Group 20: 45 mg/kg po q4d × 4): 0 | # Death NTR ([5]; Group 21: 60 mg/kg po q4d × 4): 0 | # Death TR ([5]; Group 21: 60 mg/kg po q4d × 4): 4 | Efficacy Score = 10*(TWd1−TWdn)/TWd1 ([5]; single dose oral 60 mg/kg): 4.3 | Efficacy Score = 10*(TWd1−TWdn)/TWd1 ([5]; single dose oral 120 mg/kg): 8.7 | Max. % BW Loss; Day ([5]; 30 mg/kg): −11.3%; | Max. % BW Loss; Day ([5]; 45 mg/kg): −22.6%; | Max. % BW Loss; Day ([5]; 60 mg/kg): −28.1%; | # Death NTR [6, 16]: 0 | # Death TR [6, 16]: 0 | MDS to 1.0 g ± SEM (n) ([6]; Group 6: 60 mg/kg IV QD × 1 in 5% E-95% I-20): 51.9 ± 0.0 | # Death NTR [6, 17]: 0 | # Death TR [6, 17]: 0 | # Death NTR [6, 18]: 0 | # Death TR [6, 18]: 5 | MDS to 1.0 g ± SEM (n) ([6]; Group 8: 60 mg/kg IV QD × 1 in 5% ET in Saline): 51.8± | # Death NTR [6, 19]: 0 | # Death TR [6, 19]: 0 | # Death NTR [6, 20]: 0 | # Death TR [6, 20]: 0 | MDS to 1.0 g ± SEM (n) ([6]; Group 10: 60 mg/kg IV QD × 1 in 5% EC in Saline): 46.0± | # Death NTR [6, 21]: 0 | # Death TR [6, 21]: 0 | # Death NTR [6, 22]: 0 | # Death TR [6, 22]: 0 | # Death NTR [6, 23]: 0 | # Death TR [6, 23]: 0 | # Death NTR [6, 24]: 0 | # Death TR [6, 24]: 0 | # Death NTR [6, 25]: 0 | # Death TR [6, 25]: 0 | # Death NTR [6, 26]: 0 | # Death TR [6, 26]: 0 | # Death NTR [6, 27]: 0 | # Death TR [6, 27]: 0 | Efficacy Score = 10*(TWd1−TWdn)/TWd1 ([6]; Dose 60, best score 10): 8 | Efficacy Score = 10*(TWd1−TWdn)/TWd1 ([6]; Dose 120, best score 10): 8.7
